In patent US20260124309A1, “STAT6 DEGRADERS AND USES THEREOF” (Kymera Therapeutics, Inc., priority 2023, published 2026):

Columns and labels:
[1] = molecular target: T1, STAT6-HiBiT (Homo sapiens, UniProt P42226); assay: STAT6 HiBiT degradation in A549 (STAT6-HiBiT) cells; type: cell-based; conditions: 24 h
T1 construct: Degradation of STAT6 in endogenously tagged STAT6-HiBiT A549 cells; endogenous in cells; host or cells: A549 (STAT6-HiBiT) knock-in cells
T1 sequence (P42226 1-847): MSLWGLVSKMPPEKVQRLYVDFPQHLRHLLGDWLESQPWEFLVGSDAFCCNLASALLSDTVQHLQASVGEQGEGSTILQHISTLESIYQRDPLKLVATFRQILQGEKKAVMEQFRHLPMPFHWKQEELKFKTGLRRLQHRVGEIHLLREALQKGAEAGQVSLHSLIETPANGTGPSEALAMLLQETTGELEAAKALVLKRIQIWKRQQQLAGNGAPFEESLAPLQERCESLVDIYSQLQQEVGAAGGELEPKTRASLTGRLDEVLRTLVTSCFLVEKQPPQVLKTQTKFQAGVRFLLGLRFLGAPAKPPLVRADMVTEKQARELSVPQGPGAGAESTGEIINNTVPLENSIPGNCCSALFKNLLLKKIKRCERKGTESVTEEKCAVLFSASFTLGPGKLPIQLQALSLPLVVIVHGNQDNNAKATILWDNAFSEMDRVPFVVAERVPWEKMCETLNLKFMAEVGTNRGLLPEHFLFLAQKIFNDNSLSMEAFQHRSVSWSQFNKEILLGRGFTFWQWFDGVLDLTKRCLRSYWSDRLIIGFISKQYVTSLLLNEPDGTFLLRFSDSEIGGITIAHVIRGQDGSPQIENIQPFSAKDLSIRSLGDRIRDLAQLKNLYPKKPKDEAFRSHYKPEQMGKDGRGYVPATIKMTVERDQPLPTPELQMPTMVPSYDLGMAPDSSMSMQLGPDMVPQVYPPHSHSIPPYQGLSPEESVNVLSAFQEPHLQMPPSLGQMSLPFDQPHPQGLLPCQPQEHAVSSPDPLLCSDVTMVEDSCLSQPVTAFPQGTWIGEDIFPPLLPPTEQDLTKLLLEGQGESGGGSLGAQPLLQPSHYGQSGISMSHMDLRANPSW
Experimental: Degradation of STAT6 in endogenously tagged STAT6-HiBiT A549 cells was quantitatively measured using the Nano-Glo HiBiT Lytic Detection System (Promega, 3040). A549 (STAT6-HiBiT) cells were seeded in 384-well plates with a density of 1.25k cells per well in 20 μl fresh media. Compounds were then added to the assay plates using the Apricot S3 with a final top concentration of up to 10 uM in a 4-fold dilution series with total of 10 doses. The assay plates were then incubated for 24 hours at 37° C. under 5% CO2. At the assay endpoint, 20 μL of Nano-Glo HiBiT Lytic Reagent was added to each well and agitated on a plate shaker at 300 rpm for 10 minutes at room temperature. Luminescence was read on PHERAStar FSX Instrument (Is integration time). The data was analyzed by GraphPad Prism and the dose dependent STAT6 degradation was fit using the four-parameter inhibitor vs. response nonlinear regression.
The letter codes for DC50 (nM) include: A (<1 nM): B (1-10 nM); C (>10-100 nM); D (>100-1000 nM); E (>1000 nM); and F (not tested). The letter codes for Dmax (%) include: A (>90%); B (>70-90%); C (>50-70%); D (<50%); and E (not tested).

[2] = molecular target: T2, biotinylated truncated STAT6 (123-632)-avi (Homo sapiens, UniProt P42226); assay: STAT6 HTRF binding assay; conditions: HTRF binding, 0.15 nM biotinylated truncated STAT6 (123-632)-avi, 20 nM fluorescein-labeled probe
T2 construct: biotinylated truncated STAT6 (123-632)-avi purified from E. coli; made in house; host or cells: E. coli
T2 sequence (P42226 123-632 limits assumed): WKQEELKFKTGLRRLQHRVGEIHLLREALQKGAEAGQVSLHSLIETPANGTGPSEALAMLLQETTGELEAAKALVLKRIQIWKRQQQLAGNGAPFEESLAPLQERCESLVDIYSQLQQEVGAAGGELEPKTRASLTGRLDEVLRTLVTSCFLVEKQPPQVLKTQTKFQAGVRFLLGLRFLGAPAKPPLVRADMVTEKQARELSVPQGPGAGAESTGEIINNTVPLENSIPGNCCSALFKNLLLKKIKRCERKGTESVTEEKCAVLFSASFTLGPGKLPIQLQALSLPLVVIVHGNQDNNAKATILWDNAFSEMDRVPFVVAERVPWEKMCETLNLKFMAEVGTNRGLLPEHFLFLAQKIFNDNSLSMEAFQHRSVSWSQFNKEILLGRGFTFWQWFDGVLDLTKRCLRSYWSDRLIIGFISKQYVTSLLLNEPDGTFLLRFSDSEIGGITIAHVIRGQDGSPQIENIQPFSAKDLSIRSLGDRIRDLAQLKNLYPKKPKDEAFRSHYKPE
Experimental: HTRF binding assays were performed using 0.15 nM biotinylated truncated STAT6 (123-632)-avi purified from E. coli, 1× Streptavidin-terbium (CisBio) prepared by mixing SA-Tb in PPI detection buffer (CisBio), 20 nM proprietary fluorescein-labeled probe, and test compounds in assay buffer consisting of 50 mM HEPES-Na pH 7.5, 100 mM NaCl, 1 mM EDTA, 2 mM DTT, 0.1% Tween-20 with a final volume of 20 uL. Compound stocks were dissolved at 10 mM in 100% DMSO and 11 point titration with 3 fold serial dilution was performed in white, opaque 384 well microplates. Reaction plates were incubated at room temperature for 30 minutes. Plates were centrifuged at low rpm for 5 mins, and the ratio of fluorescence intensities were measured at emission wavelengths for fluorescein acceptor (520 nm) and terbium donor (495 nm) on Envision Plate reader. % Inhibition was calculated from the 520/495 ratio generated by using proprietary positive control compound for 100% inhibition and DMSO only reactions for 0% inhibition. Data was processed and dose response curves were generated using GraphPad Prism to determine the concentration required for inhibiting 50% of the HTRF signal (IC50).
The letter codes for IC50 (μM) include: A (<0.1 μM); B (0.1-1 μM); C (>1-10 μM); D (>10-100 μM); E (>100 μM); and F (not tested).

[3] = molecular target: T3, STAT6 (Homo sapiens, UniProt P42226); assay: STAT6 MSD degradation in A549 cells; type: cell-based; conditions: 24 h
T3 construct: endogenous in cells; host or cells: A549
T3 sequence (P42226 1-847): T1 sequence (P42226 1-847)
Experimental: Degradation of STAT6 in cells was quantitatively measured using Meso Scale Discovery (MSD) technology. A549 cells were seeded in 96-well plates with a density of 1.5×10e4 to 5×10e5 cells per well in 100 μl fresh media. Compounds were then added to the assay plates with a final top concentration of up to 10 uM in a 1:3 dilution series with total of 9 doses. The assay plates were then incubated for 4 to 24 hours at 37° C. under 5% CO2. The assay plates were then centrifuged for 5 minutes and the cell pellets were treated with 100 μl/well RIPA lysis buffer (Boston Bioproducts, BP-115D) with protease and phosphatase inhibitors (Roche, 05892791001 and 04906837001). To prepare the MSD assay plates (MSD, L15XA), the plates were coated with the capture antibody (Abnova, H00006778) in PBS, at 40 μl/well. The plates were then incubated overnight at 4° C., washed 1 time with 150 μl/well TBST buffer (Cell Signaling Technology, #9997S) and blocked with 150 μl/well blocking buffer (MSD, R93BA-4). Cell lysates were then added to MSD assay plates and the plates were incubated at room temperature for 1 hour. The plates were then washed 3 times with 150 μl/well TBST buffer and 25 μl/well primary detection antibody (Cell Signaling Technology, #5397S). The assay plates were then incubated at room temperature for 1 hour, washed 3 times with 150 μl/well TBST buffer, and 25 μl/well secondary detection antibody, SULFO-TAG anti-rabbit antibody (MSD, R32AB-1) were added. The assay plates were then incubated at room temperature for 1 hour, washed 3 times with 150 μl/well TBST buffer, and 150 μl/well MSD reading buffer (MSD, R92TC-2) were added. The plates were then analyzed by an MSD reader. The data was analyzed by GraphPad Prism and the dose dependent STAT6 degradation was fit using the four-parameter inhibitor vs. response nonlinear regression.
The letter codes for DC50 (nM) include: A (<1 nM); B (1-10 nM); C (>10-100 nM); D (>100-1000 nM); E (>1000 nM); and F (not tested). The letter codes for Dmax (oo) include: A (>90%); B (>70-90%); C (>50-70%); D ([…]); and F (not tested).

Cc1nn([C@H]2CCC(=O)NC2=O)c2cccc(CCN3CCN(c4cc(Cl)c(-c5cc(C6=CCCN(C(=O)CCn7cccn7)C6)c(F)c6[nH]c(C(=O)N(C)C)cc56)cc4F)CC3)c12 (single isomer, unassigned) [Example I-1078]
DC50 [1]: < 1 nM | Dmax [1]: > 90% | IC50 [2]: < 100 nM

Cc1nn(C2CCC(=O)NC2=O)c2cccc(CCN3CCN(c4cc(Cl)c(-c5cc(C6=CCCN(C(=O)CCn7cccn7)C6)c(F)c6[nH]c(C(=O)N(C)C)cc56)cc4F)CC3)c12 (single isomer, unassigned) [Example I-1079]
DC50 [1]: < 1 nM | Dmax [1]: > 90% | IC50 [2]: < 100 nM

CN(C)C(=O)c1cc2c(-c3ccc(C4CCN(c5ccc([C@@H]6CCC(=O)NC6=O)cc5F)CC4)cc3)cc(C3=CCCN(C(=O)CCn4ccnn4)C3)c(F)c2[nH]1 (single isomer, unassigned) [Example I-1438]
DC50 [1]: < 1 nM | Dmax [1]: > 90% | IC50 [2]: < 100 nM

CN(C)C(=O)c1cc2c(-c3ccc(C4CCN(c5ccc(C6CCC(=O)NC6=O)cc5F)CC4)cc3)cc(C3=CCCN(C(=O)CCn4ccnn4)C3)c(F)c2[nH]1 (single isomer, unassigned) [Example I-1439]
DC50 [1]: < 1 nM | Dmax [1]: > 90% | IC50 [2]: < 100 nM

CN(C)C(=O)c1cc2c(F)c(C3=CCCN(C(=O)CCn4cccn4)C3)cc(-c3ccc(C4CN(C(=O)c5ccc(Cl)c(C6CCC(=O)NC6=O)c5)C4)cc3)c2o1 (stereo not drawn) [Example I-495, 5-(1-(3-(1H-pyrazol-1-yl)propanoyl)-1,2,5,6-tetrahydropyridin-3-yl)-7-(4-(1-(4-chloro-3-(2,6-dioxopiperidin-3-yl)benzoyl)azetidin-3-yl)phenyl)-4-fluoro-N,N-dimethylbenzofuran-2-carboxamide]
DC50 [3]: 10 to 100 nM | Dmax [3]: 50 to 70% | IC50 [2]: < 100 nM

Cc1cc(C2CCN(c3cccc4c3n(C)c(=O)n4C3CCC(=O)NC3=O)CC2)ccc1-c1cc(C2=CCCN(C(=O)C(C)C)C2)c(F)c2[nH]c(C(=O)N(C)C)cc12 (stereo not drawn) [Example I-566]
DC50 [3]: < 1 nM | Dmax [3]: > 90% | IC50 [2]: 1000 to 10000 nM

CN(C)C(=O)c1cc2c(-c3ccc(C4CCN(c5ccc(C6CCC(=O)NC6=O)cc5F)CC4)cc3)cc(C3=CCCN(C(=O)CCn4cccn4)C3)c(F)c2[nH]1 (stereo not drawn) [Example I-628, 6-(1-(3-(1H-pyrazol-1-yl)propanoyl)-1,2,5,6-tetrahydropyridin-3-yl)-4-(4-(I-(4-(2,6-dioxopiperidin-3-yl)-2-fluorophenyl)piperidin-4-yl)phenyl)-7-fluoro-N,N-dimethyl-1H-indole-2-carboxamide]
DC50 [3]: < 1 nM | Dmax [3]: > 90% | Dmax [1]: > 90% | IC50 [2]: < 100 nM

COc1cc(N2CCN(c3ccc(-c4cc(C5=CCCN(C(=O)CCn6cccn6)C5)c(F)c5[nH]c(C(=O)N(C)C)cc45)c(F)c3F)CC2)c(F)cc1NC1CCC(=O)NC1=O (stereo not drawn) [Example I-677, 6-(1-(3-(1H-pyrazol-1-yl)propanoyl)-1,2,5,6-tetrahydropyridin-3-yl)-4-(4-(4-(4-((2,6-dioxopiperidin-3-yl)amino)-2-fluoro-5-methoxyphenyl)piperazin-1-yl)-2,3-difluorophenyl)-7-fluoro-N,N-dimethyl-1H-indole-2-carboxamide]
DC50 [3]: < 1 nM | Dmax [3]: > 90% | DC50 [1]: < 1 nM | Dmax [1]: > 90% | IC50 [2]: < 100 nM

COc1cc(N2CCN(CCCCCCCCN(C(=O)[C@H]3CCCN(c4cncc5ccccc45)C3)c3ccc(=O)n(CC(=O)O)c3)CC2)ccc1-c1cc(C2=CCCN(C(=O)CCn3ccnn3)C2)c(F)c2[nH]c(C(=O)N(C)C)cc12 [Example I-1076, (S)-2-(5-(N-(8-(4-(4-(6-(l-(3-(1H-1,2,3-triazol-1-yl)propanoyl)-1,2,5,6-tetrahydropyridin-3-yl)-2-(dimethylcarbamoyl)-7-fluoro-LH-indol-4-yl)-3-methoxyphenyl)piperazin-1-yl)octyl)-1-(isoquinolin-4-yl)piperidine-3-carboxamido)-2-oxopyridin-1 (2H)-yl)acetic acid]
DC50 [3]: 10 to 100 nM | Dmax [3]: 50 to 70% | IC50 [2]: < 100 nM
